Assay results from patent publication US20240409944A1, “COMPOSITIONS AND METHODS FOR THE INHIBITION OF TUMOR METASTASIS AND HORIZONTAL GENE TRANSFER” (The Regents of the University of Colorado, a body corporate, priority 2021, published 2024).
“Also recorded” adds a separate entry of the source. Like-named read-outs stand apart in the source and are kept apart here. *1 amine or outer side, *2 acyl side, *3 side chain or, on linkers, in order; H or OH if unused. Where a SMILES comes first, the peptide text is derived from it. Bridges are numbered along the chain shown (N, C = ends). Roman numbers before positions name the chains, in order. [ ]: non-standard residue; d: D form. Actinocin(9to1) = Cc1c2oc3c(C)ccc(C(=O)[*:1])c3nc-2c(C(=O)[*:2])c(N)c1=O; NMeV = CN[C@H](C(=O)O)C(C)C; Sar = CNCC(=O)O

Assays:
[1] = system: RPE1-Venus-Parkin and MDA-MB-231-H2B-mCherry co-culture; assay: Intercellular gene transfer in co-culture, flow cytometric analysis; assay type: cell-based
[2] = system: MDASC43 & RPE1-VEP co-culture; assay: 48-hour live cell imaging of CIC structures, MDASC43 co-culture; assay type: cell-based; conditions: 10 μM Doxorubicin, 100 μM Hygromycin B; for effect on number/frequency of CIC structures / average duration of CIC structures / time at which CIC structures were concentrated: 20 μM Actinomycin D; for average duration of CIC structures / time at which CIC structures were concentrated: alone or combined
[3] = system: HUVEC and MDA-MB-231-H2B-mCherry co-culture; assay: Live cell imaging of CIC structures, HUVEC co-culture; assay type: cell-based, Human; conditions: preliminary
[4] = system: F-actin; assay: F-actin stability (Alexa Fluor 594 Phalloidin); assay type: cell-based; conditions: co-cultured RPE1-VEP and MDA-MB-231-H2BmCherry
Experimental: Immunofluorescence microscopy was performed as described previously.

[5] = system: MDA-MB-231-H2B-mCherry and RPE1-Venus-Parkin co-culture; assay: Cell entrapment (cell-in-cell structure formation), live-cell imaging; conditions: inhibitor treatment
[6] = compound present in the co-culture, Hygromycin B 100 μM

| Compound | effect on gene transfer [1, 6] | effect on number/frequency of CIC structures [2] | average duration of CIC structures [2] [h] | time at which CIC structures were concentrated [2] [h] | further results |
| --- | --- | --- | --- | --- | --- |
| Cc1cn([C@H]2C=C[C@@H](CO)O2)c(=O)[nH]c1=O [Stavudine] | – | – | – | – | IC50 ([1]; later used as positive control of the screen, read-out: IC50 as potential tangocytosis inhibitor): 1.83 µM |
| COc1cccc2c1C(=O)c1c(O)c3c(c(O)c1C2=O)C[C@@](O)(C(=O)CO)C[C@@H]3O[C@H]1C[C@H](N)[C@H](O)[C@H](C)O1 [Doxorubicin] | inhibiting | most CIC structure formation; also recorded: significantly increased | 11.5 | 13.6 to 25.1 | effect on CIC structure duration [2]: significantly higher; also recorded: significantly increased |
| Cc1c2oc3c(C)ccc(C(=O)N[C@@H]4C(=O)N[C@H](C(C)C)C(=O)N5CCC[C@H]5C(=O)N(C)CC(=O)N(C)[C@@H](C(C)C)C(=O)O[C@@H]4C)c3nc-2c(C(=O)N[C@@H]2C(=O)N[C@H](C(C)C)C(=O)N3CCC[C@H]3C(=O)N(C)CC(=O)N(C)[C@@H](C(C)C)C(=O)O[C@@H]2C)c(N)c1=O [Actinomycin D] (I: T[dV]P[Sar][NMeV] / II: T[dV]P[Sar][NMeV]; ester I:1-I:C, II:1-II:C; linker I:N-II:N via Actinocin(9to1)) | – | significantly increased | 6.04 | 9.2 to 15.3 | effect on gene transfer [1]: prevents; gene transfer percentage [1]: 1.5%; average CIC structure duration ([3]; 100 μM Hygromycin B, 20 μM Actinomycin D, or combination, 1 focus field): 2.1 h; time at which CIC structures were concentrated ([3]; 100 μM Hygromycin B, 20 μM Actinomycin D, or combination): 2.9 to 5.1 h; effect on CIC structures (induction, frequency) [3]: induced |
| C/C1=C/C(=O)O[C@@H]2C[C@@H](CC[C@H](C)/C=C\CC1)O[C@@](O)([C@@H]1CSC(=O)N1)C2 [Latrunculin B] | significantly decreased | – | – | – | concentration that resulted in the lowest percentage of gene transfer to RPE cells [1]: 3 µM; F-actin levels [4]: significantly decreased |
| COc1ccc(C2CC(c3ccccc3)=NN2c2ccc(S(N)(=O)=O)cc2)cc1 (centres unmarked) [ML141] | decreased; also recorded: significant effect | – | – | – | – |
| C[C@@H](N)[C@H]1CC[C@H](C(=O)Nc2ccncc2)CC1 [Y27632] | effect of ROCKs perturbation by RNA depletion was phenocopied | – | – | – | effect on cell entrapment (cell-in-cell structure formation) [5]: effect of ROCKs perturbation by RNA depletion was phenocopied |
